Test results published in ChEMBL document CHEMBL1201862, “PubChem BioAssay data set” (2004).
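Method: 48-hour compound exposure of cells in 96-well plates, five concentrations, linear interpolation of endpoints. Here, GI50 denotes the concentration required for 50% inhibition of growth.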 Active and inactive are the calls of the source. No stated cut-off is given here; in the data, active = GI50 up to about 1.1 µM and inactive = higher.

Columns and labels:
Assay in all cases: NCI-60 cell line screen, 48 h
NCI-H23 = tested on: NCI-H23
SK-MEL-5 = tested on: SK-MEL-5
T47D = tested on: T47D
MDA-MB-231 = tested on: MDA-MB-231
SF-268 = tested on: SF-268
PC-3 = tested on: PC-3
UACC-257 = tested on: UACC-257
OVCAR-3 = tested on: OVCAR-3
ACHN = tested on: ACHN
IGROV-1 = tested on: IGROV-1
HCT-15 = tested on: HCT-15
RXF 393 = tested on: RXF 393
COLO 205 = tested on: COLO 205
SR = tested on: SR
UACC-62 = tested on: UACC-62
SF-539 = tested on: SF-539
Hs-578T = tested on: Hs-578T
NCI/ADR-RES = tested on: NCI/ADR-RES
SNB-19 = tested on: SNB-19
MDA-N = tested on: MDA-N
OVCAR-5 = tested on: OVCAR-5
TK-10 = tested on: TK-10
LOX IMVI = tested on: LOX IMVI
786-0 = tested on: 786-0
HCC 2998 = tested on: HCC 2998
Malme-3M = tested on: Malme-3M
HCT-116 = tested on: HCT-116
UO-31 = tested on: UO-31
OVCAR-4 = tested on: OVCAR-4
A549 = tested on: A549
BT-549 = tested on: BT-549
EKVX = tested on: EKVX
DU-145 = tested on: DU-145
CAKI-1 = tested on: CAKI-1
MCF7 = tested on: MCF7
SNB-75 = tested on: SNB-75
SK-OV-3 = tested on: SK-OV-3
HOP-62 = tested on: HOP-62
SK-MEL-28 = tested on: SK-MEL-28
HT-29 = tested on: HT-29
MOLT-4 = tested on: MOLT-4
KM12 = tested on: KM12
CCRF-CEM = tested on: CCRF-CEM
SF-295 = tested on: SF-295
NCI-H460 = tested on: NCI-H460
NCI-H522 = tested on: NCI-H522
SN12C = tested on: SN12C
SK-MEL-2 = tested on: SK-MEL-2
M14 = tested on: M14
K562 = tested on: K562
HL-60 = tested on: HL-60
OVCAR-8 = tested on: OVCAR-8
MDA-MB-435 = tested on: MDA-MB-435
A498 = tested on: A498
U-251 = tested on: U-251
RPMI-8226 = tested on: RPMI-8226
SW-620 = tested on: SW-620
NCI-H226 = tested on: NCI-H226
HOP-92 = tested on: HOP-92

Q: Which results are given for `CCN(CC)Cc1cc(Nc2ccnc3ccc4c(nnn4C)c23)ccc1O`?
A: GI50 (NCI-H23): 11.5 µM (inactive); GI50 (SK-MEL-5): 12.7 µM (inactive); GI50 (T47D): 23.9 µM (inactive); GI50 (MDA-MB-231): 17.2 µM (inactive); GI50 (SF-268): 10.2 µM (inactive); GI50 (PC-3): 6.82 µM (inactive); GI50 (UACC-257): 14.8 µM (inactive); GI50 (OVCAR-3): 19.3 µM (inactive); GI50 (ACHN): 2.81 µM (inactive); GI50 (IGROV-1): 15.4 µM (inactive); GI50 (HCT-15): 3.67 µM; GI50 (RXF 393): 11.5 µM (inactive); GI50 (COLO 205): 6.7 µM (inactive); GI50 (SR): 4.13 µM (inactive); GI50 (UACC-62): 15 µM (inactive); GI50 (SF-539): 5.33 µM (inactive); GI50 (Hs-578T): 15.5 µM (inactive); GI50 (NCI/ADR-RES): 19 µM (inactive); GI50 (SNB-19): 5.55 µM (inactive); GI50 (MDA-N): 11.5 µM (inactive); GI50 (OVCAR-5): 11.1 µM (inactive); GI50 (TK-10): 21.5 µM (inactive); GI50 (LOX IMVI): 11.9 µM (inactive); GI50 (786-0): 7.14 µM (inactive); GI50 (HCC 2998): 1.75 µM (inactive); GI50 (Malme-3M): 13 µM (inactive); GI50 (HCT-116): 4.93 µM (inactive); GI50 (UO-31): 6.62 µM (inactive); GI50 (OVCAR-4): 7.6 µM (inactive); GI50 (A549): 12.2 µM (inactive); GI50 (BT-549): 18.8 µM (inactive); GI50 (EKVX): 26.7 µM (inactive); GI50 (DU-145): 13.3 µM (inactive); GI50 (CAKI-1): 13.5 µM (inactive); GI50 (MCF7): 4.03 µM (inactive); GI50 (SNB-75): 5.89 µM (inactive); GI50 (SK-OV-3): 14.1 µM (inactive); GI50 (HOP-62): 4.92 µM (inactive); GI50 (SK-MEL-28): 3.98 µM (inactive); GI50 (HT-29): 5.56 µM (inactive); GI50 (MOLT-4): 3.86 µM (inactive); GI50 (KM12): 14.9 µM (inactive); GI50 (CCRF-CEM): 5.06 µM (inactive); GI50 (SF-295): 12.7 µM (inactive); GI50 (NCI-H460): 3.42 µM (inactive); GI50 (NCI-H522): 16.2 µM (inactive); GI50 (SN12C): 6.1 µM (inactive); GI50 (SK-MEL-2): 16.1 µM (inactive); GI50 (M14): 15.3 µM (inactive); GI50 (K562): 5.24 µM (inactive); GI50 (HL-60): 9.89 µM (inactive); GI50 (OVCAR-8): 16.1 µM (inactive)

Q: What does the source list for `CO[C@]12C#CC=CC#C[C@@H](O)[C@]3(CCC1)O[C@@]23c1cccc(O)c1`?
A: GI50 (MDA-MB-435): > 100 µM (inactive); GI50 (NCI-H23): > 100 µM (inactive); GI50 (T47D): > 100 µM (inactive); GI50 (MDA-MB-231): > 100 µM (inactive); GI50 (A498): > 100 µM (inactive); GI50 (U-251): > 100 µM (inactive); GI50 (SF-268): > 100 µM (inactive); GI50 (PC-3): > 100 µM (inactive); GI50 (UACC-257): > 100 µM (inactive); GI50 (OVCAR-3): > 100 µM (inactive); GI50 (ACHN): > 100 µM (inactive); GI50 (HCT-15): > 100 µM; GI50 (RXF 393): > 100 µM (inactive); GI50 (COLO 205): > 100 µM (inactive); GI50 (RPMI-8226): > 100 µM (inactive); GI50 (UACC-62): 52.6 µM (inactive); GI50 (Hs-578T): > 100 µM (inactive); GI50 (NCI/ADR-RES): > 100 µM (inactive); GI50 (SNB-19): 51.3 µM (inactive); GI50 (MDA-N): > 100 µM (inactive); GI50 (OVCAR-5): > 100 µM (inactive); GI50 (TK-10): > 100 µM (inactive); GI50 (LOX IMVI): > 100 µM (inactive); GI50 (786-0): > 100 µM (inactive); GI50 (HCC 2998): > 100 µM (inactive); GI50 (HCT-116): > 100 µM (inactive); GI50 (UO-31): > 100 µM (inactive); GI50 (OVCAR-4): > 100 µM (inactive); GI50 (A549): > 100 µM (inactive); GI50 (BT-549): > 100 µM (inactive); GI50 (DU-145): > 100 µM (inactive); GI50 (CAKI-1): > 100 µM (inactive); GI50 (MCF7): > 100 µM (inactive); GI50 (SNB-75): > 100 µM (inactive); GI50 (SK-OV-3): > 100 µM (inactive); GI50 (HOP-62): 79.3 µM (inactive); GI50 (SK-MEL-28): > 100 µM (inactive); GI50 (MOLT-4): 54.8 µM (inactive); GI50 (KM12): > 100 µM (inactive); GI50 (SF-295): > 100 µM (inactive); GI50 (NCI-H460): > 100 µM (inactive); GI50 (SW-620): > 100 µM (inactive); GI50 (SN12C): > 100 µM (inactive); GI50 (SK-MEL-2): > 100 µM (inactive); GI50 (NCI-H226): > 100 µM (inactive); GI50 (M14): > 100 µM (inactive); GI50 (K562): 97.3 µM (inactive); GI50 (OVCAR-8): > 100 µM (inactive)

Q: `O=C1NC(=O)C(C(c2ccc(Cl)cc2)C2C(=O)NC(=O)NC2=O)C(=O)N1.c1ccncc1` was tested. Which GI50 (MDA-MB-435) did it give?
A: > 100 µM (inactive)

Q: What about the GI50 (NCI-H23) of the same molecule?
A: > 100 µM (inactive)

Q: And the GI50 (SK-MEL-5)?
A: > 100 µM (inactive)

Q: What about the GI50 (T47D) of the same molecule?
A: > 100 µM (inactive)

Q: And the GI50 (MDA-MB-231)?
A: > 100 µM (inactive)

Q: What about the GI50 (A498) of the same molecule?
A: > 100 µM (inactive)

Q: And the GI50 (HOP-92)?
A: > 100 µM (inactive)

Q: And the GI50 (U-251)?
A: > 100 µM (inactive)

Q: And the GI50 (PC-3)?
A: > 100 µM (inactive)

Q: And the GI50 (UACC-257)?
A: > 100 µM (inactive)

Q: What about the GI50 (OVCAR-3) of the same molecule?
A: > 100 µM (inactive)

Q: What about the GI50 (ACHN) of the same molecule?
A: > 100 µM (inactive)

Q: And the GI50 (IGROV-1)?
A: > 100 µM (inactive)

Q: And the GI50 (HCT-15)?
A: > 100 µM

Q: What about the GI50 (RXF 393) of the same molecule?
A: 58.9 µM (inactive)

Q: And the GI50 (COLO 205)?
A: > 100 µM (inactive)

Q: What about the GI50 (RPMI-8226) of the same molecule?
A: > 100 µM (inactive)

Q: What about the GI50 (UACC-62) of the same molecule?
A: > 100 µM (inactive)

Q: And the GI50 (Hs-578T)?
A: > 100 µM (inactive)

Q: What about the GI50 (NCI/ADR-RES) of the same molecule?
A: > 100 µM (inactive)

Q: And the GI50 (SNB-19)?
A: > 100 µM (inactive)

Q: And the GI50 (MDA-N)?
A: > 100 µM (inactive)

Q: What about the GI50 (OVCAR-5) of the same molecule?
A: > 100 µM (inactive)

Q: What about the GI50 (TK-10) of the same molecule?
A: > 100 µM (inactive)

Q: What about the GI50 (LOX IMVI) of the same molecule?
A: > 100 µM (inactive)

Q: And the GI50 (786-0)?
A: > 100 µM (inactive)

Q: And the GI50 (Malme-3M)?
A: > 100 µM (inactive)

Q: And the GI50 (HCT-116)?
A: > 100 µM (inactive)

Q: What about the GI50 (UO-31) of the same molecule?
A: > 100 µM (inactive)

Q: And the GI50 (OVCAR-4)?
A: > 100 µM (inactive)

Q: What about the GI50 (A549) of the same molecule?
A: > 100 µM (inactive)

Q: And the GI50 (BT-549)?
A: > 100 µM (inactive)

Q: And the GI50 (EKVX)?
A: > 100 µM (inactive)

Q: What about the GI50 (DU-145) of the same molecule?
A: > 100 µM (inactive)

Q: What about the GI50 (CAKI-1) of the same molecule?
A: > 100 µM (inactive)

Q: And the GI50 (MCF7)?
A: > 100 µM (inactive)

Q: And the GI50 (HOP-62)?
A: > 100 µM (inactive)

Q: What about the GI50 (SK-MEL-28) of the same molecule?
A: > 100 µM (inactive)

Q: And the GI50 (HT-29)?
A: > 100 µM (inactive)

Q: What about the GI50 (MOLT-4) of the same molecule?
A: > 100 µM (inactive)

Q: And the GI50 (KM12)?
A: > 100 µM (inactive)

Q: And the GI50 (CCRF-CEM)?
A: > 100 µM (inactive)

Q: And the GI50 (SF-295)?
A: > 100 µM (inactive)

Q: What about the GI50 (NCI-H460) of the same molecule?
A: > 100 µM (inactive)

Q: What about the GI50 (NCI-H522) of the same molecule?
A: > 100 µM (inactive)

Q: What about the GI50 (SW-620) of the same molecule?
A: > 100 µM (inactive)

Q: What about the GI50 (SN12C) of the same molecule?
A: > 100 µM (inactive)

Q: And the GI50 (SK-MEL-2)?
A: > 100 µM (inactive)

Q: And the GI50 (NCI-H226)?
A: > 100 µM (inactive)

Q: What about the GI50 (M14) of the same molecule?
A: > 100 µM (inactive)

Q: And the GI50 (K562)?
A: > 100 µM (inactive)

Q: What about the GI50 (HL-60) of the same molecule?
A: > 100 µM (inactive)

Q: What about the GI50 (OVCAR-8) of the same molecule?
A: > 100 µM (inactive)
